Assay results: the NIST ThermoML archive (doi:10.1021/je8008254)

Legend:
[1] = xn = mol fraction of the nth substance listed; settings: 101 kPa, Liquid
[2] = 101 kPa, Liquid

CCCCn1cc[n+](C)c1.N#C[S-] [1-butyl-3-methylimidazolium thiocyanate] + CO
[1]
Settings | mass density, 298.15 K [kg/m3] | mass density, 308.15 K [kg/m3] | mass density, 318.15 K [kg/m3] | mass density, 328.15 K [kg/m3] | viscosity, 298.15 K [mPa·s] | viscosity, 308.15 K [mPa·s] | viscosity, 318.15 K [mPa·s] | viscosity, 328.15 K [mPa·s]
x1 = 0.0154 | 810 | 800.87 | 791.7 | 782.41 | 0.665 | 0.593 | 0.536 | 0.49
x1 = 0.0531 | 854.66 | 846.16 | 837.63 | 829.05 | 0.871 | 0.765 | 0.681 | 0.613
x1 = 0.0964 | 892.65 | 884.64 | 876.63 | 868.59 | 1.18 | 1.02 | 0.892 | 0.792
x1 = 0.1443 | 924.63 | 917.04 | 909.43 | 901.81 | 1.62 | 1.39 | 1.2 | 1.06
x1 = 0.2076 | 954.94 | 947.69 | 940.47 | 933.23 | 2.34 | 1.96 | 1.67 | 1.45
x1 = 0.3602 | 1001.45 | 994.74 | 988.06 | 981.43 | 5.15 | 4.13 | 3.33 | 2.82
x1 = 0.5083 | 1028.1 | 1021.68 | 1015.3 | 1008.99 | 9.75 | 7.55 | 6.03 | 4.85
x1 = 0.6227 | 1041.88 | 1035.64 | 1029.43 | 1023.26 | 14.5 | 10.8 | 8.4 | 6.68
x1 = 0.7114 | 1050.29 | 1044.13 | 1038.01 | 1031.94 | 19.4 | 14.1 | 10.7 | 8.4
x1 = 0.8006 | 1057.46 | 1051.39 | 1045.36 | 1039.38 | 25.4 | 18 | 13.4 | 10.32
x1 = 0.9046 | 1064.23 | 1058.22 | 1052.27 | 1046.37 | 34.1 | 23.3 | 16.9 | 12.78
x1 = 1 | 1069.79 | 1063.89 | 1058.02 | 1052.19 | 51.7 | 34.9 | 24.2 | 16.7

CCO [ethanol]
[2]
Settings | mass density [kg/m3] | viscosity [mPa·s]
298.15 K | 785.17 | 1.09
308.15 K | 776.49 | 0.912
318.15 K | 767.67 | 0.774
328.15 K | 758.65 | 0.664
338.15 K | 749.35 | 0.589
348.15 K | 739.75 | 0.512

CCO [ethanol] + CCCCn1cc[n+](C)c1.N#C[S-]
[1], x2 = 0
Settings | mass density [kg/m3] | viscosity [mPa·s]
298.15 K | 785.17 | 1.09
308.15 K | 776.49 | 0.912
318.15 K | 767.67 | 0.774
328.15 K | 758.65 | 0.664
338.15 K | 749.35 | 0.589
348.15 K | 739.75 | 0.512

CO [methanol]
[2]
Settings | mass density [kg/m3] | viscosity [mPa·s]
298.15 K | 786.64 | 0.577
308.15 K | 777.15 | 0.525
318.15 K | 767.59 | 0.481
328.15 K | 757.83 | 0.443

CO [methanol] + CCCCn1cc[n+](C)c1.N#C[S-]
[1], x2 = 0
Settings | mass density [kg/m3] | viscosity [mPa·s]
298.15 K | 786.64 | 0.577
308.15 K | 777.15 | 0.525
318.15 K | 767.59 | 0.481
328.15 K | 757.83 | 0.443

CCCO [propan-1-ol]
[2]
Settings | mass density [kg/m3] | viscosity [mPa·s]
298.15 K | 799.52 | 1.94
308.15 K | 791.41 | 1.54
318.15 K | 783.15 | 1.24
328.15 K | 774.66 | 1.02
338.15 K | 765.91 | 0.842
348.15 K | 756.84 | 0.71

CCCO [propan-1-ol] + CCCCn1cc[n+](C)c1.N#C[S-]
[1], x2 = 0
Settings | mass density [kg/m3] | viscosity [mPa·s]
298.15 K | 799.52 | 1.94
308.15 K | 791.41 | 1.54
318.15 K | 783.15 | 1.24
328.15 K | 774.66 | 1.02
338.15 K | 765.91 | 0.842
348.15 K | 756.84 | 0.71
